Assay results published in patent US4889860A (Nova Pharmaceutical Corporation, priority 1987, dated 1989).
Where two headings read alike, the source gives them in different places.

Experiments:
[1] = target: T1, mu-type opioid receptor (Rattus norvegicus, UniProt P33535); assay: inhibition of specific [^3 H] DAGO binding to rat forebrain membranes
T1 construct: using rat forebrain membranes; from tissue; host or cells: rat forebrain membranes
Experimental: (§1) The interaction of some of the novel compounds with mu and delta-type opioid receptors present in brain membranes was examined in vitro. […] DAGO (mu-type receptor) or [^3 H] DADLE (delta-type receptor) was determined using rat forebrain membranes. Computer assisted analysis (EBDA) was used to determine apparent Ki values for the various compounds.
(§2) Values represent the MEAN±S.E.M. of the Ki(nM) for each compound to inhibit specific binding of the indicated ligand to rat brain membranes. The values are from two-five separate experiments and were calculated according to the method of Cheng and Prusoff [Biochem. Pharmacol. 1973, 22, 3099-3108] together with the EBDA Program. Numbers in parentheses are the mean Hill coefficients for each compound to inhibit ligand binding.
as §2, with “two.div.seven” for “two-five”, “Prusoff” for “Prusoff [Biochem. Pharmacol. 1973, 22, 3099-3108]”, “program.” for “Program.”, “binding. N.D.=not determined” for “binding.”
(§3) The interaction of some of the novel compounds with mu, delta and kappa - type opioid receptors present in brain membranes was examined in vitro. […] DAGO (mu-type receptor), or [^3 H] DADLE (Delta-type receptor) using rat forebrain membranes and [^3 H] EKC (kappa-type receptor) using guiniea pig cerebellum membrane was determined. Computer assisted analysis (EBDA) was used to determine apparent Ki values for the various compounds.
(§4) The values represent the MEAN±S.E.M. of the Ki(nM) for each compound to inhibit specific binding of the indicated ligand. Each value represents the mean of three individual experiments performed on separate occasions.

[2] = target: delta-type opioid receptor (Rattus norvegicus, UniProt P33533); assay: inhibition of specific [^3 H] DADLE binding to rat forebrain membranes
Experimental: as §1, §2
as §2, with “two.div.seven” for “two-five”, “Prusoff” for “Prusoff [Biochem. Pharmacol. 1973, 22, 3099-3108]”, “program.” for “Program.”, “binding. N.D.=not determined” for “binding.”
as §3, §4

[3] = target: T2, kappa-type opioid receptor (Cavia porcellus, UniProt P41144); assay: inhibition of specific [^3 H] EKC binding to guinea pig cerebellum membrane
T2 construct: using guiniea pig cerebellum membrane; from tissue; host or cells: guinea pig cerebellum membranes
Experimental: as §3, §4

[4] = system: oxymorphonazine (OMZ)-induced analgesia; assay: antagonism of oxymorphonazine (OMZ)-induced analgesia (tail flick) in rats; format: in vivo, rat; settings: S.C.; for ED50 / ED100: Rattus norvegicus, sc, Table 8; for ED50: read-out: ED 50, oxymorphonazine antagonism; for ED100: read-out: ED 100, oxymorphonazine antagonism; for Percent Antagonism at 1 Hr / Percent Antagonism at 1.5 Hr / Percent Antagonism at 2 Hr / Percent Antagonism at 3 Hr / Percent Antagonism at 4 Hr / Percent Antagonism at 6 Hr / Percent Antagonism at 8 Hr: dose tested (mg/kg): Naltrexone 0.5, Nalmefene 1.0, XI 10.0, XII 2.5, XIII 0.5, XIV 5.0
Experimental: The compound of Example XII was evaluated for its potency and duration in the antagonism of oxymorphonazine (OMZ)-induced analgesia. […] Data represent the mean SEM of 4-5 animals per group.
(Cowan A. Trendsin Pharmacology Science, 7:69-72, 1986) With this test the intracerebroventricular administration of bombesin produces a characteristic scratching response.

[5] = system: tail flick response; assay: radiant heat tail flick analgesia in rats; format: in vivo, rat
Experimental: The analgesic properties of the compounds prepared in accordance with Examples III and IV were evaluated in rats using the radiant heat and tail flick paradigm. […] Flick latencies in FIGS. 11-13 were determined at 30 minute intervals through 3.5 h and the data was expressed as a percentage of the maximum possible effect (% MPE). A 15 sec. cut-off latency was used to minimize tissue damage. The values shown are the mean values for 6 rats.
A 15 sec. cut-off latency was used to prevent tissue damage.
The analgesic properties of compounds XXII and XXIII were evaluated in rats using the writhing assay and tail flick paradigm. […] The writhing assay which uses a chemical stimulus to produce pain, is believed to be more sensitive to kappa agonist activity than other measures of analgesia which uses a heat stimulus (Dykstra, L.A. Behavioral Pharmacology: The Current Status, N.Y.: Allan R. Liss. Inc. 1985).

[6] = Ki, inhibition of specific [^3 H] DAGO binding, Tables 1 and 2, rat brain membranes, MEAN±S.E.M.
[7] = read-out: Ki, inhibition of specific [^3 H] DADLE binding, Tables 1 and 2, rat brain membranes, MEAN±S.E.M.
[8] = (Ki) nM, μ receptor (Rat Forebrain), Table 6, [^3 H] DAGO, mean of three experiments
[9] = read-out: (Ki) nM, δ receptor (Rat Forebrain), Table 6, [^3 H] DADLE, mean of three experiments

delta-type opioid receptor, sequence (P33533 whole entry): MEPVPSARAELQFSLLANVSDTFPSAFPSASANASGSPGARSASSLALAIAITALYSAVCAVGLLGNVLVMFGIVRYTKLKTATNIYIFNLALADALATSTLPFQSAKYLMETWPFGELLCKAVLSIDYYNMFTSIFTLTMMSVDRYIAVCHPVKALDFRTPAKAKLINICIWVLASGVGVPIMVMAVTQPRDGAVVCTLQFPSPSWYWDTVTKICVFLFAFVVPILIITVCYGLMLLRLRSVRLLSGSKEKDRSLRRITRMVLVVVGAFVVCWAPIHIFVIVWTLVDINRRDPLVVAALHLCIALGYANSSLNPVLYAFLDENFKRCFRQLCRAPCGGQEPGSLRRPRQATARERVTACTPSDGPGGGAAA
T2 sequence (P41144 whole entry): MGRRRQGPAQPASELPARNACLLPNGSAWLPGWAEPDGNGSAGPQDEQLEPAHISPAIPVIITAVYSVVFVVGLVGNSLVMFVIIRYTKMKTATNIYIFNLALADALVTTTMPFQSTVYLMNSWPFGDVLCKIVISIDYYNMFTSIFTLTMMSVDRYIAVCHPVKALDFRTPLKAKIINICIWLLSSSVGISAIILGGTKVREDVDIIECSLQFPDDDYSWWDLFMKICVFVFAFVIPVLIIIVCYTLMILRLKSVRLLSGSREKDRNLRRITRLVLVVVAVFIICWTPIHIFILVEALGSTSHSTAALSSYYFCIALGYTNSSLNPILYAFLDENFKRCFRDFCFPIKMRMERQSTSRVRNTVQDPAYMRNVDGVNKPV
T1 sequence (P33535 whole entry): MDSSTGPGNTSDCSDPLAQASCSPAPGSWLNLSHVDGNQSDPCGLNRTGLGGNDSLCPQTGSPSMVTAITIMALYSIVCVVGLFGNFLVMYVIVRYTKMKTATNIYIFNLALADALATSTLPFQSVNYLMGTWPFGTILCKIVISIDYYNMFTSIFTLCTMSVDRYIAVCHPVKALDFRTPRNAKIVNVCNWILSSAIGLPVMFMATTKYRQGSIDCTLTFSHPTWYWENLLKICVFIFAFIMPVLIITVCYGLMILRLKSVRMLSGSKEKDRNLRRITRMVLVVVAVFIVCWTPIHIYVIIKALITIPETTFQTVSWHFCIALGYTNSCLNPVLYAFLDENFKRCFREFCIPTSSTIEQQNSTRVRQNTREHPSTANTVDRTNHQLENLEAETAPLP

CON=C1CC[C@@]2(O)[C@H]3Cc4ccc(O)c5c4[C@@]2(CCN3C)[C@H]1O5 [Example II, 6-Methyloximino-17-methyl-4,5 α-epoxy-3, 14-dihydroxymorphinan]
Ki [1, 6]: 0.97 ± 0.1 nM
Ki [2, 7]: 3.44 ± 0.83 nM

ON=C1CC[C@@]2(O)[C@H]3Cc4ccc(O)c5c4[C@@]2(CCN3CC2CC2)[C@H]1O5 [Example IX, 6-Oximino-17-cyclopropylmethyl-4,5 α-epoxy-3, 14-dihydroxymorphinan]
Ki [1, 8]: 0.24 nM
mean Hill coefficient, [^3 H] DAGO binding ([1]; Tables 1 and 2, numbers in parentheses): 0.81
Ki ([1]; Tables 1 and 2, rat brain membranes, MEAN±S.E.M., read-out: Ki, inhibition of specific [^3 H] DAGO binding): 0.24 ± 0.03 nM
fold more potent to inhibit specific [^3 H]DAGO binding ([1]; than compound of Example X or XI, or naltrexone): 3 fold
Ki [2, 9]: 1.64 nM
Ki [3]: 2.05 nM

CON=C1CC[C@@]2(O)[C@H]3Cc4ccc(O)c5c4[C@@]2(CCN3CC2CC2)[C@H]1O5 [Example X, 6-Methyloximino-17-cyclopropylmethyl-4,5 α-epoxy-3, 14-dihydroxymorphinan]
Ki [1, 6]: 0.66 ± 0.06 nM
Ki [2, 7]: 1.8 ± 0.22 nM

Oc1ccc2c3c1O[C@H]1C(=NOCc4ccccc4)CC[C@@]4(O)[C@@H](C2)N(CC2CC2)CC[C@]314 [Example XI, 6-Benzyloximino-17-cyclopropylmethyl-4, 5 α-epoxy-3, 14-dihydroxymorphinan]
Ki [1, 8]: 0.55 nM
Ki [1, 6]: 0.55 ± 0.12 nM
Ki [2, 9]: 0.87 nM
Ki [2, 7]: 0.7 ± 0.22 nM
ED50 [4]: 1.2 mg/kg
ED100 [4]: 13 mg/kg
Percent Antagonism at 1 Hr [4]: 72%
Percent Antagonism at 1.5 Hr [4]: 86%
Percent Antagonism at 2 Hr [4]: 91%
Percent Antagonism at 3 Hr [4]: 93%
Percent Antagonism at 4 Hr [4]: 103%
Percent Antagonism at 6 Hr [4]: 122%
Percent Antagonism at 8 Hr [4]: 64%

Cc1ccc(ON=C2CC[C@@]3(O)[C@H]4Cc5ccc(O)c6c5[C@@]3(CCN4CC3CC3)[C@H]2O6)cc1C [Example XIII, 6-[3,4-dimethylphenyl]oximino-17-cyclopropylmethyl-4,5α-epoxy-3,14-dihydroxymorphinan]
Ki [1, 8]: 1.64 nM
Ki [2, 9]: 2.69 nM
ED50 [4]: 0.09 mg/kg
ED100 [4]: 0.74 mg/kg
Percent Antagonism at 1 Hr [4]: 77%
Percent Antagonism at 1.5 Hr [4]: 72%
Percent Antagonism at 2 Hr [4]: 67%
Percent Antagonism at 3 Hr [4]: 79%
Percent Antagonism at 4 Hr [4]: 72%
Percent Antagonism at 6 Hr [4]: 71%
Percent Antagonism at 8 Hr [4]: 97%

Oc1ccc2c3c1O[C@H]1C(=NOC4CCCc5ccccc54)CC[C@@]4(O)[C@@H](C2)N(CC2CC2)CC[C@]314 (stereo partly drawn) [Example XIV, 6-[1,2,3,4-tetrahydronaphth-1-yl]oximino-17-cyclopropylmethyl-4,5 α-epoxy-3,14-dihydroxymorphinan]
Ki [1, 8]: 2.76 nM
Ki [2, 9]: 0.6 nM
Ki [3]: 4.66 nM
ED50 [4]: 0.02 mg/kg
ED100 [4]: 6.73 mg/kg
Percent Antagonism at 1 Hr [4]: 80%
Percent Antagonism at 1.5 Hr [4]: 84%
Percent Antagonism at 2 Hr [4]: 82%
Percent Antagonism at 3 Hr [4]: 84%
Percent Antagonism at 4 Hr [4]: 83%
Percent Antagonism at 6 Hr [4]: 41%
Percent Antagonism at 8 Hr [4]: 20%

Cc1cccc(ON=C2CC[C@@]3(O)[C@H]4Cc5ccc(O)c6c5[C@@]3(CCN4CC3CC3)[C@H]2O6)c1C [Example XV, 6-[2,3-dimethylphenyl]oximino-17-cyclopropylmethyl-4,5 α-epoxy-3,14-dihydroxymorphinan]
Ki [1, 8]: 1.19 nM
Ki [2, 9]: 1.23 nM

Oc1ccc2c3c1O[C@H]1C(=NOc4ccc(C(F)(F)F)cc4)CC[C@@]4(O)[C@@H](C2)N(CC2CC2)CC[C@]314 [Example XVII, 6-[4-trifluoromethylphenyl]oximino-17-cyclopropylmethyl-4,5 α-epoxy-3,14-dihydroxymorphinan]
Ki [1, 8]: 26.4 nM
Ki [2, 9]: 34.4 nM

CC(C)(C)ON=C1CC[C@@]2(O)[C@H]3Cc4ccc(O)c5c4[C@@]2(CCN3CC2CC2)[C@H]1O5 [Example XVI]
Ki [1, 8]: 1.01 nM
Ki [2, 9]: 0.41 nM
Ki [3]: 7.39 nM

N=C(N)c1ccc(ON=C2CC[C@@]3(O)[C@H]4Cc5ccc(O)c6c5[C@@]3(CCN4CC3CC3)[C@H]2O6)cc1 [Example XX, 6-[4-iminoaminomethylphenyl]oximino-17-cyclopropylmethyl-4,5 α-epoxy-3,14-dihydroxymorphinan]
Ki ([1]; read-out: (Ki) nM, μ receptor (Rat Forebrain), Table 6, [^3 H] DAGO, mean of three experiments): 0.73 nM
Ki [2, 9]: 1.67 nM
Ki ([3]; read-out: (Ki) nM, κ receptor (GP Cerebellum), Table 6, [^3 H] EKC, mean of three experiments): 0.64 nM

O=C1c2ccccc2C(=O)N1Cc1ccc(ON=C2CC[C@@]3(O)[C@H]4Cc5ccc(O)c6c5[C@@]3(CCN4CC3CC3)[C@H]2O6)cc1 [Example XXI, 6-[4-phthalimidomethylphenyl]oximino-17-cyclopropylmethyl-4,5 α-epoxy-3,14-dihydroxymorphinan]
Ki [1, 8]: 7.35 nM
Ki [2, 9]: 2.57 nM
Ki [3]: 18 nM

NCc1ccc(ON=C2CC[C@@]3(O)[C@H]4Cc5ccc(O)c6c5[C@@]3(CCN4CC3CC3)[C@H]2O6)cc1 [Example XXIV, 6-[4-aminomethylphenyl]oximino-17-cyclopropylmethyl-4,5α-epoxy-3,14-dihydroxymorphinan]
Ki [1, 8]: 0.34 nM
Ki [2, 9]: 1 nM
Ki [3]: 0.71 nM

Oc1ccc2c3c1O[C@H]1C(=NOC4CCCCC4)CC[C@@]4(O)[C@@H](C2)N(CC2CC2)CC[C@]314 [Example XXV, 6-cyclohexyloximino-17-cyclopropylmethyl-4,5 α-epoxy-3,14-dihydroxymorphinan]
Ki [1, 8]: 1.1 nM
Ki [2, 9]: 0.08 nM
Ki [3]: 9.76 nM

Oc1ccc2c3c1O[C@H]1C(=NOC4CCCC4)CC[C@@]4(O)[C@@H](C2)N(CC2CC2)CC[C@]314 [Example XXVI, 6-cyclopentyloximino-17-cyclopropylmethyl-4,5 α-epoxy-3,14-dihydroxymorphinan]
Ki [1, 8]: 0.52 nM
Ki [2, 9]: 0.04 nM
Ki [3]: 7.94 nM

Oc1ccc2c3c1O[C@H]1C(=NOC45CC6CC(CC(C6)C4)C5)CC[C@@]4(O)[C@@H](C2)N(CC2CC2)CC[C@]314 [Example XXVII, 6-[1-adamantyl]oximino-17-cyclopropylmethyl-4,5 α-epoxy-3,14-dihydroxymorphinan]
Ki [1, 8]: 5.39 nM
Ki [2, 9]: 2.63 nM
Ki [3]: 6.41 nM

CN1CC[C@]23c4c5ccc(O)c4O[C@H]2[C@@H](O)C=C[C@H]3[C@H]1C5 [Morphine, morphine, reference compound]
ED50, tail flick analgesia ([5]; S.C., 30 min): 4.91 µmol/kg
dose producing approximately equal analgesia ([5]; S.C., tail flick, through 3.5 hr): ~10.5 µmol/kg
ED50, Antagonism of the Tail-Flick Response in the Rat ([5]; Table 7): 2.60 mg/kg
antagonism of tail-flick response to heat ([5]; rat): effectively antagonized the tail-flick response to a heat stimulus in the rat

Oc1ccc2c3c1O[C@H]1C(=NOc4ccccc4C(F)(F)F)CC[C@@]4(O)[C@@H](C2)N(CC2CC2)CC[C@]314 [XIX, 6-[2-trifluoromethylphenyl]oximino-17-cyclopropylmethyl-4,5 α-epoxy-3,14-dihydroxymorphinan]
Ki [1, 8]: 3.77 nM
Ki [2, 9]: 1.29 nM

N#Cc1ccc(ON=C2CC[C@@]3(O)[C@H]4Cc5ccc(O)c6c5[C@@]3(CCN4CC3CC3)[C@H]2O6)cc1 [XVIII, 6-[4-cyanophenyl]oximino-17-cyclopropylmethyl-4,5α-epoxy-3,14-dihydroxymorphinan]
Ki [1, 8]: 2.07 nM
Ki [2, 9]: 1.64 nM
Ki [3]: 12.9 nM
